Laboratory results: paper PMC4926109, “Pharmacological targeting of glucose-6-phosphate dehydrogenase in human erythrocytes by Bay 11–7082, parthenolide and dimethyl fumarate” (Scientific Reports, 2016)
Structures can show the parent of a compound that is named as a salt. Where two headings read alike, the source gives them in different places. Each block holds one compound with its values, some of them ahead of it.

How the values were obtained:
[1] = test system: mature human erythrocytes; experiment: MCV and MCHC of inhibitor-treated erythrocytes (ADVIA 120 Hematology System); type: cell-based; details: Hct 0.6%
Procedure: Erythrocyte concentrates (0.6% Hct), suspended in 30 ml Ringer solution were treated with Bay 11–7082 (20 μM), parthenolide (50 μM) and DMF (140 μM) for 24 h, respectively. DMSO (0.2% (v/v))-treated erythrocytes served as negative controls. After incubation, samples were centrifuged at 210 g for 10 min at room temperature in order to obtain RBC pellets. Ionomycin (0.25 μM)-treated erythrocytes served as positive controls, and were first incubated in Ringer solution in the absence of ionomycin for 21.5 h. Subsequently, the cells were treated with ionomycin for 2.5 h, and the MCV and MCHC values were determined. The MCV and MCHC analysis was carried out with an ADVIA 120 Hematology System Instrument (Siemens, Germany).

[2] = test system: mature human erythrocytes; experiment: Forward scatter (FSC, GeoMean) by flow cytometry, cell volume / cell shrinkage; type: cell-based; details: for GeoMean: Hct 0.6%; for decrease of cell volume (forward scatter): increasing concentrations, 24 h and 48 h, 0.4% Hct
Procedure: (§1) After incubation, 2·10^6 RBCs were washed in 500 μl Annexin-binding buffer. RBC pellets were then vortexed gently to get a homogenous cell suspension. To detect phosphatidylserine (PS) on the outer leaflet of the plasma membrane, these cells were subsequently stained with 32 μl Annexin V-FLUOS at a 1:33 dilution and mixed gently on a vortex mixer. After 20 min incubation in the dark at room temperature, 200 μl of Annexin-binding buffer was added to each sample, thoroughly vortexed to achieve single cell suspensions, and analysed by flow cytometry on a FACS-Calibur (Becton Dickinson, Heidelberg, Germany). Cell volume was determined by forward scatter (FSC), and Annexin V-FLUOS binding was measured in the FL1-channel.

[3] = test system: GSH in mature human erythrocytes; experiment: Intracellular GSH measurement by HPLC (GS-NEM conjugate); type: cell-based; details: for GSH depletion / GSH: 24 h; for GSH: 0.6% Hct, DMSO control 7.52; for IC50: 24 h in Ringer solution, 0.6% Hct (mean GSH 15 μM), read-out: IC50 (GSH depletion)
Procedure: (§2) DMSO-treated erythrocytes served as negative controls. After incubation, erythrocytes were treated with 0.6 mM (final concentration) NEM prepared as a 310 mM stock in H2O. NEM functioned as the best alkylating agent for GSH conjugation to prevent sample manipulation-induced oxidation of GSH. After a 2-min incubation at room temperature, samples were centrifuged at 210 g for 10 min in order to obtain RBC pellets. These were immediately stored at −20 °C until GSH and GSSG analyses were performed. All measurements were carried out within one week after the treatment. GSH and GSSG were measured in the clear supernatant obtained by treatment of 0.1 ml RBCs with 0.12 ml 15% (w/v) trichloroacetic acid. GSH analysis was carried out by high-performance liquid chromatography (HPLC), as recently reported. […] GSSG was measured photometrically by the GSH recycling method with slight modifications. For hemoglobin determination, one aliquot of the RBC suspensions (10 μl) was hemolysed by 1:200 dilution with H2O[62]. The HPLC analyses were carried out with an Agilent series 1100 instrument (Agilent Technologies, Milan, Italy). The photometric analyses were performed with a Jasco V-530 instrument (Jasco Europe s.r.l. Cremella, Como, Italy).

[4] = test system: GSSG in mature human erythrocytes; experiment: Intracellular GSSG measurement, photometric GSH recycling method; type: cell-based; details: 24 h, 0.6% Hct, DMSO control 0.06
Procedure: as §2

[5] = target: T1, glucose-6-phosphate dehydrogenase (G6PDH) (Homo sapiens, UniProt P11413); experiment: G6PDH activity in lysates of inhibitor-treated erythrocytes; type: cell-based; details: for EC100 (inhibition of G6PDH activity) / EC50: erythrocytes treated 24 h, 0.6% Hct; for EC50: read-out: EC50 (inhibition of G6PDH activity)
T1 construct: endogenous in cells; host or cells: human erythrocytes (RBC concentrates), treated 24 h, then lysed
T1 sequence (P11413 2-515 limits assumed): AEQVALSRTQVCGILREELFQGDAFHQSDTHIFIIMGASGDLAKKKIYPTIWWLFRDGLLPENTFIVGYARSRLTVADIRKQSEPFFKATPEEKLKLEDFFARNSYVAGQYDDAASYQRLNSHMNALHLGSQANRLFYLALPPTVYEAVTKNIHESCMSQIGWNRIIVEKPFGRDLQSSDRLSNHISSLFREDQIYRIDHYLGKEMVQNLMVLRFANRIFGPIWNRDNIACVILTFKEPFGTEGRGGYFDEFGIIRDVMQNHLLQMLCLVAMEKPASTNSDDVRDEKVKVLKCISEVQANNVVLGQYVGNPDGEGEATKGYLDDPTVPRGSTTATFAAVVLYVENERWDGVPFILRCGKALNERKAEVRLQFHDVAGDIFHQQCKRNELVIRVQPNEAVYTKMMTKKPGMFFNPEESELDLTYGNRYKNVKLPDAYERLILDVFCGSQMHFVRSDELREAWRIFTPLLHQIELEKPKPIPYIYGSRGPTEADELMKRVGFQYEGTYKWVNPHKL
Procedure: (§3) DMSO-treated erythrocytes served as negative controls. Determinations of the enzymatic activities of G6PDH, 6PGDH and GR (+/− FAD) were performed in leukocytes- and platelets-free erythrocyte lysates according to standard biochemical procedures. After 10 min incubation (20 min for GR) at 37 °C the reaction was started by adding substrate or co-factor. Changes in absorbance at 340 nm were recorded at 1 min intervals for 20 min (Infinite 200 Nanoquant spectrophotometer; Tecan, Männedorf, Switzerland). Specific activity of all enzymes was expressed as U/g Hb. The combined activity of G6PDH and 6PGDH was determined by estimating the conversion of NADP^+ to NADPH in the presence of glucose-6-phosphate (600 μM). The activity of 6PGDH alone was then measured by the conversion of NADP^+ to NADPH in the presence of 6-phosphogluconate (600 μM). Finally, G6PDH activity was calculated by subtracting 6PGDH activity from total dehydrogenase activity.

[6] = target: T2, glutathione reductase (GR) (Homo sapiens, UniProt P00390); experiment: GR activity (+/- FAD) in lysates of inhibitor-treated erythrocytes; type: cell-based
T2 construct: endogenous in cells; host or cells: human erythrocytes (RBC concentrates), treated 24 h, then lysed
T2 sequence (P00390 1-479 isoform P00390-2): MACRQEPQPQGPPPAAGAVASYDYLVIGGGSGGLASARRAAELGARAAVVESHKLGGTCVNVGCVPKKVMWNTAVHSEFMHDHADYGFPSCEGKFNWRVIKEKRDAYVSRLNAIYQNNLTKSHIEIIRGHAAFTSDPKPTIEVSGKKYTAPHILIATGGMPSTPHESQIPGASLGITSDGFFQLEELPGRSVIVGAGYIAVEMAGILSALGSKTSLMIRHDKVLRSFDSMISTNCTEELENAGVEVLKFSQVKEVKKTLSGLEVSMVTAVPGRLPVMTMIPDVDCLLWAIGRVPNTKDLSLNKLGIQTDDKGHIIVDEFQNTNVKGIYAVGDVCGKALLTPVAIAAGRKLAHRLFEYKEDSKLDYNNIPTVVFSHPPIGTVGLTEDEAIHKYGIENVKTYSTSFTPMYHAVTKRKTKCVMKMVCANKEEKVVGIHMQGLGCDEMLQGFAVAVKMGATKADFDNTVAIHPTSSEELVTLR
Procedure: as §3

6PGDH = target: T3, 6PGDH (Homo sapiens, UniProt P52209); experiment: 6PGDH activity in lysates of inhibitor-treated erythrocytes; type: cell-based; details: at the concentrations used, data not shown
T3 construct: endogenous in cells; host or cells: human erythrocytes (RBC concentrates), treated 24 h, then lysed
T3 sequence (P52209 2-483 limits assumed): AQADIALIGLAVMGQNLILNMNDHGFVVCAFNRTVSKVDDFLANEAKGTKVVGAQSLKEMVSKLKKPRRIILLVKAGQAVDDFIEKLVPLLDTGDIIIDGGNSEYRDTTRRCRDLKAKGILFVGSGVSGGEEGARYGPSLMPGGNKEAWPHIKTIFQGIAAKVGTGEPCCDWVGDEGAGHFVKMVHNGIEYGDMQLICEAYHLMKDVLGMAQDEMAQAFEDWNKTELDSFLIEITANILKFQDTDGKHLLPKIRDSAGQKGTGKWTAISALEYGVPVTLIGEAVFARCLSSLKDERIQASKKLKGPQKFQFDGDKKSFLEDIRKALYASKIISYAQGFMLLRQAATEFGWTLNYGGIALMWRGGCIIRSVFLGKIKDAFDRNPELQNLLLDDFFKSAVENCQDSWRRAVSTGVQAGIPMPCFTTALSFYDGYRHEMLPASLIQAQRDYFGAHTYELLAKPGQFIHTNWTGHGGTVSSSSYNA
Procedure: as §3

human erythrocytes [7] = experiment: Eryptosis: Annexin V binding to phosphatidylserine, flow cytometry; type: cell-based; details: increasing concentrations, same donors, 24 h and 48 h
Procedure: as §1

Trypanosoma brucei = experiment: In vitro growth inhibition of parasite culture (own unpublished data); type: cell-based; details: preliminary work
human erythrocytes [8] = details: 20 µM
Procedure: (§4) RBC concentrates (0.4% Hct) were treated with varying concentrations of Bay 11–7082, parthenolide or DMF for 24 h or 48 h, then hemolysis was determined. Briefly, after incubation, 600 μl suspension containing 1.2·10^7 RBCs were centrifuged for 4 min at 420 g, 4 °C, and the supernatants were harvested. To quantify hemolysis, the hemoglobin concentration of the supernatant was determined photometrically at 405 nm. The absorption of the supernatant of RBCs lysed in distilled water was defined as 100% hemolysis.

human erythrocytes [9] = experiment: Hemolysis (hemoglobin in supernatant, 405 nm); details: 24 h / 48 h, compared with Bay 11–7082
Procedure: as §4

[10] = 20 μM, 24 h incubation, blood group A Rhesus +
[11] = 20 μM, 24 h incubation, blood group B Rhesus +
[12] = 20 μM, 24 h incubation, blood group O Rhesus +
[13] = 140 μM, 24 h incubation, blood group A Rhesus +
[14] = 140 μM, 24 h incubation, blood group B Rhesus +
[15] = 140 μM, 24 h incubation, blood group O Rhesus +
[16] = 0.25 μM, 2.5 h incubation (after 21.5 h in Ringer), positive control, blood group A Rhesus +
[17] = 0.25 μM, 2.5 h incubation (after 21.5 h in Ringer), positive control, blood group B Rhesus +
[18] = 0.25 μM, 2.5 h incubation (after 21.5 h in Ringer), positive control, blood group O Rhesus +
[19] = 50 μM, 24 h incubation, blood group A Rhesus +
[20] = 50 μM, 24 h incubation, blood group B Rhesus +
[21] = 50 μM, 24 h incubation, blood group O Rhesus +

Structure (SMILES): Cc1ccc(S(=O)(=O)/C=C/C#N)cc1 [Bay 11–7082]
MCHC [1, 10]: 33.9 g/dL
MCV [1, 10]: 84.1 fL
MCHC [1, 11]: 37 g/dL
MCV [1, 11]: 78.5 fL
MCHC [1, 12]: 34.1 g/dL
MCV [1, 12]: 86.3 fL
GeoMean [2, 10]: 422.4
GeoMean [2, 11]: 339.3
GeoMean [2, 12]: 410.7
decrease of cell volume (forward scatter) [2]: marked decrease
GSH depletion ([3]; 20 μM final concentration): totally deplete GSH
GSH ([3]; 20 μM): 0.00 nmol/mg Hb
IC50 [3]: 7.6 µM
GSSG ([4]; 20 μM): 0.03 nmol/mg Hb
EC100 (inhibition of G6PDH activity) [5]: 20
EC50 [5]: 10 µM
inhibition of GR activity ([6]; 20 μM, 24 h): 100%
EC100 (inhibition of GR activity) ([6]; erythrocytes treated 24 h, 0.6% Hct): 20
EC50 ([6]; erythrocytes treated 24 h, 0.6% Hct, read-out: EC50 (inhibition of GR activity)): 10 µM
GR activity after addition of exogenous FAD ([6]; samples previously treated with 20 μM for 24 h): did not demonstrate significantly increased GR activity in the presence of FAD
inhibitory effect on 6PGDH activity (6PGDH): did not observe any inhibitory effect
eryptosis (Annexin V binding), comparison of the three inhibitors (human erythrocytes [7]): strongest effect
in vitro growth inhibitory effect on parasites' culture (Trypanosoma brucei): significant in vitro growth inhibitory effect
hemolysis (share of total population) (human erythrocytes [8]): approx. 3%

IC50 ([3]; Homo sapiens, Erythrocyte): 20 µM
G6PDH inactivation ([5]; 140 μM, 24 h): ~ 50%
EC50 [5]: 140 µM
inhibition at 140 µM ([6]; 140 μM, 24 h): 60%
inhibitory effect on 6PGDH activity (6PGDH): did not observe any inhibitory effect
Structure (SMILES): COC(=O)/C=C/C(=O)OC [DMF, dimethyl fumarate]
MCHC [1, 13]: 33.3 g/dL
MCV [1, 13]: 85.6 fL
MCHC [1, 14]: 33.5 g/dL
MCV [1, 14]: 83.5 fL
MCHC [1, 15]: 32.9 g/dL
MCV [1, 15]: 88.2 fL
GeoMean [2, 13]: 426.7
GeoMean [2, 14]: 427.3
GeoMean [2, 15]: 448
decrease of cell volume (forward scatter) [2]: to a lesser extent
GSH depletion ([3]; 140 μM): almost totally deplete GSH
GSH ([3]; 140 μM): 0.17 nmol/mg Hb
GSSG ([4]; 140 μM): 0.03 nmol/mg Hb
in vitro growth inhibitory effect on parasites' culture (Trypanosoma brucei): significant in vitro growth inhibitory effect
ratio of hemolysis to eryptosis (human erythrocytes [9]): even lower as compared with Bay 11–7082

Structure (SMILES): C[C@H](CCC(=O)O)C[C@H](C)C[C@H](C)C(=O)/C=C(\O)[C@H](C)C[C@H](C)C/C=C/[C@@H](C)[C@@H](O)[C@@H](C)[C@@H](O)C[C@@H]1CC[C@@](C)([C@H]2CC[C@@](C)([C@@H](C)O)O2)O1 [Ionomycin]
MCHC [1, 16]: 53 g/dL
MCV [1, 16]: 73.3 fL
MCHC [1, 17]: 50.4 g/dL
MCV [1, 17]: 72.2 fL
MCHC [1, 18]: 55.7 g/dL
MCV [1, 18]: 75.8 fL
GeoMean [2, 16]: 209.3
GeoMean [2, 17]: 166.2
GeoMean [2, 18]: 186.3

IC50 ([3]; Homo sapiens, Erythrocyte): 10 µM
G6PDH inhibition ([5]; 50 μM, 24 h): total G6PDH inhibition
inhibition at 50 µM ([5]; 50 μM, 24 h): 100%
EC100 (inhibition of G6PDH activity) [5]: 50 µM
EC50 [5]: 12 µM
inhibitory effect on 6PGDH activity (6PGDH): did not observe any inhibitory effect
Structure (SMILES): C=C1C(=O)O[C@H]2[C@H]1CC/C(C)=C/CC[C@@]1(C)O[C@@H]21 [Parthenolide, parthenolide]
MCHC [1, 19]: 33.5 g/dL
MCV [1, 19]: 84.1 fL
MCHC [1, 20]: 34.4 g/dL
MCV [1, 20]: 82.2 fL
MCHC [1, 21]: 33.8 g/dL
MCV [1, 21]: 87 fL
GeoMean [2, 19]: 425.24
GeoMean [2, 20]: 418.8
GeoMean [2, 21]: 451.5
decrease of cell volume (forward scatter) [2]: to a lesser extent
GSH depletion ([3]; 50 μM): almost totally deplete GSH
GSH ([3]; 50 μM): 0.30 nmol/mg Hb
GSSG ([4]; 50 μM): 0.03 nmol/mg Hb
ability to inhibit GR activity ([6]; parthenolide 1–50 μM, 24 h): Unlike parthenolide, only Bay 11–7082 and DMF were able to inhibit the GR activity
in vitro growth inhibitory effect on parasites' culture (Trypanosoma brucei): significant in vitro growth inhibitory effect
ratio of hemolysis to eryptosis (human erythrocytes [9]): even lower as compared with Bay 11–7082
